According to US7498336B2, “Deazaflavin compounds and methods of use thereof” (The United States of America as represented by the …, priority 2003, dated 2009):
Entries after “also recorded” stand apart in the source; their conditions may differ.

Biological target: T1, Nedd4 (Homo sapiens, UniProt P46934)
T1 construct: made in house
T1 sequence (P46934 1-1319): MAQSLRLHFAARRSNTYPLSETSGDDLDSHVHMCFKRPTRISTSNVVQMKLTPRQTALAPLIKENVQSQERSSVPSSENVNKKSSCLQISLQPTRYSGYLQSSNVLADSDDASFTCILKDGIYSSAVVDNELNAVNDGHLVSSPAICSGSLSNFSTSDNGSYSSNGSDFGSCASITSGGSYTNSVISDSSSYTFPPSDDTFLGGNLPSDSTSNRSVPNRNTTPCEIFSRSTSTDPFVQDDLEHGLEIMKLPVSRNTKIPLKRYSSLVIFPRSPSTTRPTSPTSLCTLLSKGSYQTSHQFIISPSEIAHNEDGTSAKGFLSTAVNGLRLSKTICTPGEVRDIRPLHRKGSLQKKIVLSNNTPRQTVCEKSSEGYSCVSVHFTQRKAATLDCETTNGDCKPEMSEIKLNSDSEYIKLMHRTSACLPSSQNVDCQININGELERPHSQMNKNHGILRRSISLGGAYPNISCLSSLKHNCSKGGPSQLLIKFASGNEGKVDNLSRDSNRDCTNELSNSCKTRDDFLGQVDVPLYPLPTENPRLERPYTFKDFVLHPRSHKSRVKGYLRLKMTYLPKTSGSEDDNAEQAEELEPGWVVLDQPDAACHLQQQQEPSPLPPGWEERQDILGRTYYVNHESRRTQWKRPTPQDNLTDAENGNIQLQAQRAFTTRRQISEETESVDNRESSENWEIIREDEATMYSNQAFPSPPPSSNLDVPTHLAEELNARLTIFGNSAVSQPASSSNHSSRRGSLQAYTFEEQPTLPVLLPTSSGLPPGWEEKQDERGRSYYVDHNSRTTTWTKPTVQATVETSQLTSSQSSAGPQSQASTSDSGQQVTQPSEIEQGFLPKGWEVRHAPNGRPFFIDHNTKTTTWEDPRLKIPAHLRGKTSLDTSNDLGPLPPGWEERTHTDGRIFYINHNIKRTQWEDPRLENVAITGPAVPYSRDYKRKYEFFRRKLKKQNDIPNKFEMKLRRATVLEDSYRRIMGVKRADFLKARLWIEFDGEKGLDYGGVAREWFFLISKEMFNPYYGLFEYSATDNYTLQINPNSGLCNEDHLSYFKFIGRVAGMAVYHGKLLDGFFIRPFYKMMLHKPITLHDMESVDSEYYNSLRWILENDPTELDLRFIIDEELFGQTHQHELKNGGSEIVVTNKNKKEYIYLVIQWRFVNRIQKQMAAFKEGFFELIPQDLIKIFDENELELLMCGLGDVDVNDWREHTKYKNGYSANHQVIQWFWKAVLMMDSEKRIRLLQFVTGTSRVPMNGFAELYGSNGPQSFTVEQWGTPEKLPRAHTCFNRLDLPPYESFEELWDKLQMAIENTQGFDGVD
Assay: In vitro ubiquitination assay (E1+E2+E3) with unrelated E3 ligase
Assay type: biochemical
Conditions: gel assay, FIG. 2B, 2C
Procedure: 1 pmole per experimental point of bacterially expressed GST-MDM2 (or GST-Nedd) was coupled to glutathione Sepharose (GS) for 30 minutes at room temperature with tumbling, followed by 3× wash with 50 mM Tris pH 7.5. Following this, 20 μl of 1× buffer was added (40 μl 10× reaction buffer*, 40 μl 10× PCK**, 320 μl dH2O). The test compound in DMSO is then added to the desired concentration with an equal volume of DMSO used as a control. Samples are incubated with shaking for 1 hr at 23° C. To carry out the reaction, a pre-made cocktail of Rabbit E1 (Calbiochem #6620700)/UbcH5B/^32P Ub cocktail (1 μl/0.5 μl/1 μl) is added followed by 15 minutes shaking at 30° C. The reaction is terminated by addition of 8 μl 4× reducing SDS-PAGE loading buffer. After dissociating proteins from the beads at 100° C. for 2 minutes, samples are resolved on 6% PAGE followed by exposure of the dried gel to phosphor screen. Note: ^32P Ub is derived from GST-Ub that has been engineered to include a PKA phosphorylation site. This fusion protein is purified on glutathione Sepharose, phosphorylated, following this, the ^32P Ub ubiquitin is cleaved and purified away from the thrombin.

Structure (SMILES): O=c1nc2n(-c3cccc(Cl)c3)c3ccc([N+](=O)[O-])cc3cc-2c(=O)[nH]1 [Compound 98C07, 10-(-3-chloro-phenyl)-7-nitro-10H-pyrimido[4,5-b]quinoline-2,4-dione]
- selectivity of inhibition of MDM2 versus unrelated E3 ligase Nedd4: shows some selectivity as an inhibitor of MDM2; also recorded: specificity of MDM2
